This passage reports IC50 results from patent publication US7148249B2, “Indolinones substituted by heterocycles, the preparation thereof and their use as medicaments” (Boehringer Ingelheim Pharma GmbH & Co. KG, priority 2002, dated 2006).

pIC50: −log10 of the molar value.

For the first test, the system named is Human umbilical endothelial cells (HUVEC). Nature of the test: Inhibition of VEGF165-stimulated HUVEC proliferation (3H-thymidine incorporation). It is filed as cell-based. The settings on record: HUVEC proliferation stimulated with 5 ng/ml VEGF165 and 10 μg/ml heparin; 76 h incubation + 16 h 3H-thymidine. Here is the method: Human umbilical endothelial cells (HUVEC) were cultivated in IMDM (Gibco BRL), supplemented with 10% foetal calf serum (FBS) (Sigma), 50 μM of β-mercaptoethanol (Fluka), standard antibiotics, 15 μg/ml of endothelial cell growth factor (ECGS, Collaborative Biomedical Products) and 100 μg/ml of heparin (Sigma) on gelatine-coated culture dishes (0.2% gelatine, Sigma) at 37° C., under 5% CO2 in a water-saturated atmosphere.
In order to investigate the inhibitory activity of the compounds according to the invention the cells were “starved” for 16 hours, i.e. kept in culture medium without growth factors (ECGS+heparin). The cells were detached from the culture dishes using trypsin/EDTA and washed once in serum-containing medium. Then they were seeded out in amounts of 2.5×10^3 cells per well.
The proliferation of the cells was stimulated with 5 ng/ml of VEGF165 (vascular endothelial growth factor; H. Weich, GBF Braunschweig) and 10 μg/ml of heparin. As a control, 6 wells in each dish were not stimulated.
The compounds according to the invention were dissolved in 100% dimethylsulphoxide and added to the cultures in various dilutions as triple measurements, the maximum dimethylsulphoxide concentration being 0.3%.
The cells were incubated for 76 hours at 37° C., then for a further 16 hours ^3H-thymidine (0.1 μCi/well, Amersham) was added in order to determine the DNA synthesis. Then the radioactively labelled cells were immobilised on filter mats and the radioactivity incorporated was measured in a β-counter. In order to determine the inhibitory activity of the compounds according to the invention the mean value of the non-stimulated cells was subtracted from the mean value of the factor-stimulated cells (in the presence or absence of the compounds according to the invention).
The relative cell proliferation was calculated as a percentage of the control (HUVEC without inhibitor) and the concentration of active substance which inhibits the proliferation of the cells by 50% (IC50) was determined.
As to “3-(Z)-{1-(4-[N-acetyl-N-(2-dimethylaminoethyl)-amino]-phenylamino)-1-(3,4-(difluoromethylenedioxy)phenyl)-methylene}-6-chloro-2-indolinone [(al)]”, the pIC50 (commonly the negative decadic logarithm of the IC50, by convention in mol/L) is 7.08. Still for that read-out and setting: with `CN(C)CCN(c1ccc(N/C(=C2\C(=O)Nc3cc(Cl)ccc32)c2ccc3c(c2)OCCO3)cc1Cl)S(C)(=O)=O` [(ba), 6-chloro-3-(Z)-[1-(4-{N-(2-dimethylamino-ethyl)-N-methanesulphonyl-amino}-3-chloro-phenylamino)-1-(1,2-ethylenedioxyphen-4-yl)-methylene]-2-indolinone] the figure was 7.52; with `COc1cc(N/C(=C2\C(=O)Nc3cc(F)ccc32)c2ccc3c(c2)OCCO3)ccc1N(C)C(=O)CN(C)C` [(bc), 6-fluoro-3-(Z)-{1-[4-(N-dimethylaminomethylcarbonyl-N-methyl-amino)-3-methoxy-phenylamino]-1-(1,2-ethylenedioxyphen-4-yl)-methylene}-2-indolinone], 8.30; with `CN(C)CCN(c1ccc(N/C(=C2\C(=O)Nc3cc(F)ccc32)c2ccc3c(c2)OCCO3)cc1Cl)S(C)(=O)=O` [(bd), 6-fluoro-3-(Z)-[1-(4-{N-(2-dimethylamino-ethyl)-N-methanesulphonyl-amino}-3-chloro-phenylamino)-1-(1,2-ethylenedioxyphen-4-yl)-methylene]-2-indolinone], 8.30. Turning to `Cn1cnc2cc(/C(Nc3ccc(N4CCCC4=O)cc3)=C3/C(=O)Nc4cc(F)ccc43)ccc21` [(as), 3-(Z)-{1-[4-(pyrrolid-2-on-1-yl)-phenylamino]-1-(1-methyl-benzimidazol-5-yl)-methylene}-6-fluoro-2-indolinone], the pIC50 is 7.74.

Still in this test, the particulars now being: Homo sapiens; HUVEC proliferation stimulated with 5 ng/ml VEGF165 and 10 μg/ml heparin; 76 h incubation + 16 h 3H-thymidine.
As to `CN(C)Cc1ccc(N/C(=C2\C(=O)Nc3cc(Cl)ccc32)c2ccc3c(c2)OCO3)cc1` [(a), 3-(Z)-{1-[4-(dimethylaminomethyl)-phenylamino]-1-(3,4-methylenedioxyphenyl)-methylene}-6-chloro-2-indolinone], the negative-log IC50 (pIC50) was 7.96.

Turning to `COC(=O)c1ccc2c(c1)NC(=O)/C2=C(\Nc1ccc(N(CCN(C)C)C(C)=O)cc1)c1ccc2c(c1)OCCO2` [(ac), 3-(Z)-{1-(4-[N-acetyl-N-(2-dimethylaminoethyl)-amino]-phenylamino)-1-(3,4-ethylenedioxyphenyl)-methylene}-6-methoxycarbonyl-2-indolinone], the pIC50 was 9.70. The same measure, in the same setting: with `CCN(CC)Cc1ccc(N/C(=C2\C(=O)Nc3cc(C(=O)OC)ccc32)c2ccc3c(c2)OCO3)cc1` [(x), 3-(Z)-{1-(4-[diethylamino-methyl]-phenylamino)-1-(3,4-methylenedioxyphenyl)-methylene}-6-methoxycarbonyl-2-indolinone] the figure was 9.00; with `COC(=O)c1ccc2c(c1)NC(=O)/C2=C(\Nc1ccc(C(=O)N(C)CCN(C)C)cc1)c1ccc2c(c1)OCCO2` [(ad), 3-(Z)-{1-(4-[N-methyl-N-(2-dimethylaminoethyl)aminocarbonyl]-phenylamino)-1-(3,4-ethylenedioxyphenyl)-methylene}-6-methoxycarbonyl-2-indolinone], 9.40. As for `CN(C)CCC(=O)N(C)c1ccc(N/C(=C2\C(=O)Nc3cc(F)ccc32)c2ccc3c(c2)OCCO3)cc1` [(d), 3-(Z)-{1-[4-(N-methyl-N-{2-(dimethylamino)-ethyl-carbonyl}-amino)-phenylamino]-1-(3,4-ethylenedioxyphenyl)-methylene}-6-fluoro-2-indolinone], the pIC50 was 8.52. Turning to `CN1CCN(Cc2ccc(N/C(=C3\C(=O)Nc4cc(C(=O)N(C)C)ccc43)c3ccc4c(c3)OCCO4)cc2)CC1` [(ah), 3-(Z)-{1-(4-[1-methyl-piperazin-4-yl-methyl]-phenylamino)-1-(3,4-ethylenedioxy-phenyl)-methylene}-6-dimethylaminocarbonyl-2-indolinone], the pIC50 is 7.00. Same read-out and setting: next, `CN(C)Cc1ccc(N/C(=C2\C(=O)Nc3ccccc32)c2ccc3c(c2)ncn3C)cc1` [(aq), 3-(Z)-{1-[4-(dimethylaminomethyl)-phenylamino]-1-(1-methyl-benzimidazol-5-yl)-methylene}-2-indolinone]: 7.62.

Regarding `COC(=O)c1ccc2c(c1)NC(=O)/C2=C(\Nc1ccc(N(C)C(=O)CN(C)C)cc1)c1ccc2c(c1)OCCO2` [(t), 3-(Z)-{1-(4-[N-methyl-N-(dimethylaminomethylcarbonyl)-amino]-phenylamino)-1-(3,4-ethylenedioxyphenyl)-methylene}-6-methoxycarbonyl-2-indolinone], the pIC50 is 9.22.

In the case of `CN1CCC(N(C)C(=O)c2ccc(N/C(=C3\C(=O)Nc4cc(F)ccc43)c3ccc4c(c3)OCCO4)cc2)CC1` [(am), 3-(Z)-{1-(4-[N-methyl-N-(1-methyl-4-piperidinyl)-aminocarbonyl]-phenylamino)-1-(3,4-ethylenedioxyphenyl)-methylene}-6-fluoro-2-indolinone], the pIC50 was 8.30.

As for `CN(C)Cc1ccc(N/C(=C2\C(=O)Nc3cc(Cl)ccc32)c2ccc3c(c2)OCCO3)cc1` [(g), 3-(Z)-{1-[4-(dimethylaminomethyl)-phenylamino]-1-(3,4-ethylenedioxyphenyl)-methylene}-6-chloro-2-indolinone], the pIC50 is 8.05. On the same count and under the same terms, with `CC(=O)N(CCN(C)C)c1ccc(N/C(=C2\C(=O)Nc3cc(F)ccc32)c2ccc3c(c2)OCCO3)cc1` [(k), 3-(Z)-{1-(4-[N-acetyl-N-(2-dimethylaminoethyl)-amino]-phenylamino)-1-(3,4-ethylenedioxyphenyl)-methylene}-6-fluoro-2-indolinone] the figure was 9.15. As for `CCC(=O)N(CCN(C)C)c1ccc(N/C(=C2\C(=O)Nc3cc(Cl)ccc32)c2ccc3c(c2)OCCO3)cc1` [(o), 3-(Z)-{1-(4-[N-propionyl-N-(2-dimethylaminoethyl)-amino]-phenylamino)-1-(3,4-ethylenedioxyphenyl)-methylene}-6-chloro-2-indolinone], the pIC50 was 9.00. In the case of `COC(=O)c1ccc2c(c1)NC(=O)/C2=C(\Nc1ccc(CN(C)C)cc1)c1ccc2c(c1)OCCO2` [(i), 3-(Z)-{1-[4-(dimethylaminomethyl)-phenylamino]-1-(3,4-ethylenedioxyphenyl)-methylene}-6-methoxycarbonyl-2-indolinone], the negative-log IC50 (pIC50) was 9.30.

Take `CC(=O)N(CCCN(C)C)c1ccc(N/C(=C2\C(=O)Nc3cc(Cl)ccc32)c2ccc3c(c2)OCCO3)cc1` [(m), 3-(Z)-{1-(4-[N-acetyl-N-(3-dimethylaminopropyl)-amino]-phenylamino)-1-(3,4-ethylenedioxyphenyl)-methylene}-6-chloro-2-indolinone]: the negative-log IC50 (pIC50) is 9.52.

As for `CN(C)CCN(C)S(=O)(=O)c1ccc(N/C(=C2\C(=O)Nc3cc(F)ccc32)c2ccc3c(c2)ncn3C)cc1` [(au), 3-(Z)-{1-[4-(N-methyl-N-{2-dimethylamino-ethyl}-aminosulphonyl)-phenylamino]-1-(1-methyl-benzimidazol-5-yl)-methylene}-6-fluoro-2-indolinone], the pIC50 was 7.89. Take `COC(=O)c1ccc2c(c1)NC(=O)/C2=C(\Nc1ccc(N(C)C(=O)CN2CCN(C)CC2)cc1)c1ccc2c(c1)OCCO2` [(j), 3-(Z)-{1-(4-[N-methyl-N-(4-methylpiperazin-1-yl-methylcarbonyl)-amino]-phenyl-amino)-1-(3,4-ethylenedioxyphenyl)-methylene}-6-methoxycarbonyl-2-indolinone]: the pIC50 is 9.70.

On to `CCC(=O)N(CCCN(C)C)c1ccc(N/C(=C2\C(=O)Nc3cc(F)ccc32)c2ccc3c(c2)OCCO3)cc1` [(z), 3-(Z)-{1-(4-[N-propionyl-N-(3-dimethylaminopropyl)-amino]-phenylamino)-1-(3,4-ethylenedioxyphenyl)-methylene}-6-fluoro-2-indolinone], for which the negative-log IC50 (pIC50) was 9.30. Still for that read-out and setting: with `COC(=O)c1ccc2c(c1)NC(=O)/C2=C(\Nc1ccc(CN2CCCC2)cc1)c1ccc2c(c1)OCCO2` [(s), 3-(Z)-{1-(4-[pyrrolidin-1-yl-methyl]-phenylamino)-1-(3,4-ethylenedioxyphenyl)-methylene}-6-methoxycarbonyl-2-indolinone] the figure was 9.22; with `CN(C)C(=O)c1ccc(N/C(=C2\C(=O)Nc3cc(F)ccc32)c2ccc3c(c2)ncn3C)cc1` [(y), 3-(Z)-{1-[4-(dimethylaminocarbonyl)-phenylamino]-1-(1-methyl-benzimidazol-5-yl)-methylene}-6-fluoro-2-indolinone], 7.85; with `COC(=O)c1ccc2c(c1)NC(=O)/C2=C(\Nc1ccc(CN(C)C)cc1)c1ccc2c(c1)OCO2` [(w), 3-(Z)-{1-(4-[dimethylamino-methyl]-phenylamino)-1-(3,4-methylenedioxyphenyl)-methylene}-6-methoxycarbonyl-2-indolinone], 9.30.
